The assay deals with T1, Sorbitol dehydrogenase (Homo sapiens, UniProt Q00796).
T1 sequence (Q00796 whole entry): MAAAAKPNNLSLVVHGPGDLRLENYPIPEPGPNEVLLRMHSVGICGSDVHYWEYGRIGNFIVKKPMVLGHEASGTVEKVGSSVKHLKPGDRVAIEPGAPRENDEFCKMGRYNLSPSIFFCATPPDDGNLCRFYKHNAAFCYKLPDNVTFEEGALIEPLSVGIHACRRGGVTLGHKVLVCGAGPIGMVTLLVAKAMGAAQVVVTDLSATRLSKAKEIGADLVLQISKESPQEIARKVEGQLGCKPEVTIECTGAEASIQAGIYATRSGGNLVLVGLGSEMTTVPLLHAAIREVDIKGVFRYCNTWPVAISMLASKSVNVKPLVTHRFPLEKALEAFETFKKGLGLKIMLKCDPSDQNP
Kind of assay: Concentration required for inhibitory activity against human sorbitol dehydrogenase (SDH).

As usually defined, the IC50 is the concentration that gives 50% inhibition.

Compound `CN(C)S(=O)(=O)N1CCN(c2ccnc(CO)n2)CC1` showed a 50% inhibitory concentration (IC50) of 1000 nM.

Values taken from ChEMBL document CHEMBL1133872, “Modelling studies of the active site of human sorbitol dehydrogenase: an approach to structure-based inhibitor design of the enzyme” (Bioorg Med Chem Lett, 2001).
